# PMC7529893, “Structural basis for substrate recognition and chemical inhibition of oncogenic MAGE ubiquitin ligases” (Nature Communications, 2020)
# Molecular target: T1, MAGE-A11:PCF11 interaction (GST-MAGE-A11 and FAM-PCF11_4) (Homo sapiens, UniProt P43364)
# T1 construct: GST-MAGE-A11 MHD (human MAGE-A11 MHD amino acid 218-429); made in house; host or cells: E. coli BL21(DE3)
# T1 sequence (P43364 218-429): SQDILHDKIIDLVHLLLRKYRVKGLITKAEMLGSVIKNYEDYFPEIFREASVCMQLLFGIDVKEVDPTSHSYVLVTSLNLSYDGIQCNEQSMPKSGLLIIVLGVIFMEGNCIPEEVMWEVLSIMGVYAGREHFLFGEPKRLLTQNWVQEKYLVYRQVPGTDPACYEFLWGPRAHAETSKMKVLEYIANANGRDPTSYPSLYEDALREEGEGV
# Assay: TR-FRET primary / single point screen at 15 µM
# Assay type: binding
# Settings: single point TR-FRET screening of 797 quinoline compounds against MAGE-A11:PCF11
# Description: The TR-FRET assay buffer with a formula of 50 mM Tris pH 7.5, 20 mM MgCl2, 0.1 mg/ml BSA and 1 mM DTT was freshly prepared before each experiment. All TR-FRET assays were performed in black 384-well plates with 20 µl/well assay volume in the TR-FRET assay buffer at room temperature (~25 °C). All peptides or compounds were solubilized in DMSO. To test the competitive activity of peptides or compounds against the interaction between GST-MAGE-A11 MHD and FAM-PCF11_4 peptide, 10 µl/well peptide or compound at specified concentration was dispensed into a black 384-well low volume plate, followed by 5 µl/well FAM-PCF11_4 (800 nM), 5 µl/well Tb-anti-GST (20 nM), and GST-MAGE-A11 MHD (20 nM). The assay components in each well was then mixed by shaking the plate on an IKA MTS 2/4 digital microtiter plate shaker (IKA Works; Wilmington, NC, USA) for 1 min. The plate was further centrifuged in an Eppendorf 5810 centrifuge with an A-4-62 swing-bucket rotor (Eppendorf AG, Hamburg, Germany) at 201 g for 30 s. The plate was then incubated for 90 min with a lid to avoid light exposure to the assay components. After incubation, the fluorescent emission signals at 520 nm and 490 nm channels of individual wells were measured with a PHERAstar FS plate reader (BMG Labtech; Durham, NC, USA) by using a 340 nm excitation filter, 100 µs delay time, and 200 µs integration time. The TR-FRET fluorescence emission ratio (TR-FRET signal) for each well was presented as 10,000 × 520 nm/490 nm, which was used directly for curve fitting, or further converted to %Inhibition based on the respective positive and negative controls. The graphic software GraphPad Prism 4.81 (GraphPad Software; La Jolla, CA, USA) was used to generate curves and derive IC50 values of tested peptides or compounds, if applicable. TR-FRET screen for identifying MAGE-A11 small molecule inhibitors was performed as follows. The primary one-concentration screening and subsequent 10 or 20-concentration dose-response tests were accomplished with an automated High Throughput Screening system (HighRes Biosolutions, Beverly, MA)[30]. In the primary screening, 15 µl/well FAM-PCF11_4 (267 nM) was first dispensed with a Multidrop Combi Reagent Dispenser (Thermo Fisher Scientific, Waltham, MA) to black 384-well low-volume assay plates. The plates were spun down with a Velocity11 VSpin microplate centrifuge (Agilent Technologies, Santa Clara, CA). In total, 30 nl/well of 10 mM compound/DMSO solutions, or DMSO alone, were transferred from compound plates (the St. Jude FDA drug and bioactive library, Drug-like library and Lead-like library) or a control plate to the assay plates with a Pin Tool (V&P Scientific, San Diego, CA). The compounds were arrayed in columns 3–12 and columns 15–24 of compound plates. The controls were arrayed in columns 1, 2, 13, and 14 of a compound plate. In all, 5 µl/well Tb-anti-GST (20 nM) and GST-MAGE-A11 (20 nM) or 5 µl/well Tb-anti-GST (20 nM) alone was then dispensed to selected wells with a Multidrop Combi Reagent Dispenser. The final assay volume was 20 µl/well. […] The final tested compound concentration was 15 µM. The final FAM-PCF11_4 concentration was 200 nM and the final Tb-anti-GST concentration was 5 nM. The final GST-MAGE-A11 concentration was 5 nM except for those selected positive control wells in which GST-MAGE-A11 was not presented. The plates were then shaken with a big bear shaker (Big Bear Automation, Santa Clara, California) and spun down with the Velocity11 VSpin microplate centrifuge for 20 s. The plates were then incubated at room temperature in a Liconic incubator (Liconic US, Woburn, MA) for 90 min. The TR-FRET signals for individual wells were measured with a PHERAstar FS plate reader. The %Inhibition of each tested inhibitor was calculated by using Eq. 1. Those inhibitors with %Inhibition >30% in the primary screening were selected for further dose-response test, along with additional newly synthesized compounds. […]
row,percent inhibition (TR-FRET),Compound
1,-15.701,O=S(=O)(c1ccccc1)c1cnc2ccc(Cl)cc2c1N1CCN(c2ccccc2)CC1 [SJ000083977]
2,-133.117,COc1ccc2ncc(S(=O)(=O)c3ccccc3)c(N3CCN(c4ccc(F)cc4)CC3)c2c1 [SJ000083978]
3,-181.288,CCOc1ccc2ncc(S(=O)(=O)c3ccccc3)c(N3CCN(c4ccc(F)cc4)CC3)c2c1 [SJ000083979]
4,-11.08,O=S(=O)(c1ccccc1)c1cnc2ccc(F)cc2c1N1CCN(c2ccc(F)cc2)CC1 [SJ000083980]
5,-37.966,COc1ccc(N2CCN(c3c(S(=O)(=O)c4ccccc4)cnc4ccc(C)cc34)CC2)cc1 [SJ000083981]
6,-32.8549,COc1ccc(N2CCN(c3c(S(=O)(=O)c4ccccc4)cnc4ccc(F)cc34)CC2)cc1 [SJ000083982]
7,-17.9415,COc1ccc(N2CCN(c3c(S(=O)(=O)c4ccccc4)cnc4ccc(Cl)cc34)CC2)cc1 [SJ000083983]
8,4.988,CN(C)c1cc(NC(=O)CN2CCOCC2)c2ccccc2n1 [SJ000111677]
9,10.6249,CN(C)c1cc(NC(=O)CNC(C)(C)CC(C)(C)C)c2ccccc2n1 [SJ000111678]
10,-1.072,Cc1cc(NC(=O)CN2CCN(C(=O)c3ccco3)CC2)c2ccccc2n1 [SJ000111679]
11,4.6472,Cc1cc(NC(=O)CN2CCN(C)CC2)c2ccccc2n1 [SJ000111680]
12,6.8942,CCc1nc2ccccc2c(NC(=O)CN2CCN(c3ccccc3)CC2)c1C [SJ000111681]
13,1.593,CCc1nc2ccccc2c(NC(=O)CN2CCCCC2)c1C [SJ000111682]
14,-264.327,O=C(CN1CCN(C(=O)c2ccccc2)CC1)Nc1c2c(nc3ccccc13)N(c1cccc(Cl)c1)CC2 [SJ000111683]
15,11.85,O=C(CN1CCN(C(c2ccccc2)c2ccccc2)CC1)Nc1c2c(nc3ccccc13)CCC2 [SJ000111684]
16,-53.4343,COc1ccc(-c2csc(N3CCN(c4cc(C)nc5ccccc45)CC3)n2)cc1OC [SJ000114009]
17,-6.567,Cc1ccc(S(=O)(=O)c2cnc3ccccc3c2N2CCN(c3ccccc3)CC2)cc1 [SJ000117047]
18,-85.5732,COc1ccc2ncc(S(=O)(=O)c3ccc(C)cc3)c(N3CCN(c4ccccc4)CC3)c2c1 [SJ000117048]
19,-45.3213,CCOc1ccc2ncc(S(=O)(=O)c3ccc(C)cc3)c(N3CCN(c4ccccc4)CC3)c2c1 [SJ000117049]
20,-3.321,Cc1ccc(S(=O)(=O)c2cnc3ccc(Cl)cc3c2N2CCN(c3ccccc3)CC2)cc1 [SJ000117050]
21,-52.476,COc1ccc2ncc(S(=O)(=O)c3ccc(C)c(C)c3)c(N3CCN(c4ccccc4)CC3)c2c1 [SJ000117051]
22,-16.9013,Cc1ccc(S(=O)(=O)c2cnc3ccc(F)cc3c2N2CCN(c3ccccc3)CC2)cc1C [SJ000117052]
23,-21.2074,CCc1ccc(S(=O)(=O)c2cnc3ccccc3c2N2CCN(c3ccccc3)CC2)cc1 [SJ000117053]

row,percent inhibition (TR-FRET),Compound
1,2.112,O=S(=O)(c1ccc(Cl)cc1)c1cnc2ccc(F)cc2c1N1CCN(c2ccccc2)CC1 [SJ000117055]
2,-2.791,CCc1ccc2ncc(S(=O)(=O)c3ccc(OC)cc3)c(N3CCN(c4ccccc4)CC3)c2c1 [SJ000117056]
3,-20.6111,Cc1ccc(S(=O)(=O)c2cnc3ccccc3c2N2CCN(c3ccc(F)cc3)CC2)cc1 [SJ000117057]
4,-4.068,Cc1ccc(S(=O)(=O)c2cnc3ccc(C)cc3c2N2CCN(c3ccc(F)cc3)CC2)cc1 [SJ000117058]
5,-118.524,COc1ccc2ncc(S(=O)(=O)c3ccc(C)cc3)c(N3CCN(c4ccc(F)cc4)CC3)c2c1 [SJ000117059]
6,-11.0715,CCOc1ccc2ncc(S(=O)(=O)c3ccc(C)cc3)c(N3CCN(c4ccc(F)cc4)CC3)c2c1 [SJ000117060]
7,-70.4952,Cc1ccc(S(=O)(=O)c2cnc3ccc(F)cc3c2N2CCN(c3ccc(F)cc3)CC2)cc1 [SJ000117061]
8,-54.8642,Cc1ccc(S(=O)(=O)c2cnc3ccccc3c2N2CCN(c3ccc(F)cc3)CC2)cc1C [SJ000117062]
9,-4.205,O=S(=O)(c1ccc(F)cc1)c1cnc2ccc(Cl)cc2c1N1CCN(c2ccc(F)cc2)CC1 [SJ000117063]
10,-9.084,CCc1ccc2ncc(S(=O)(=O)c3ccc(OC)cc3)c(N3CCN(c4ccc(F)cc4)CC3)c2c1 [SJ000117064]
11,-8.687,COc1ccccc1N1CCN(c2c(S(=O)(=O)c3ccc(C)cc3)cnc3ccccc23)CC1 [SJ000117065]
12,-92.8867,COc1ccccc1N1CCN(c2c(S(=O)(=O)c3ccc(C)cc3)cnc3ccc(C)cc23)CC1 [SJ000117066]
13,-12.8602,COc1ccccc1N1CCN(c2c(S(=O)(=O)c3ccc(C)cc3)cnc3ccc(Cl)cc23)CC1 [SJ000117067]
14,-5.706,COc1ccccc1N1CCN(c2c(S(=O)(=O)c3ccc(C)c(C)c3)cnc3ccccc23)CC1 [SJ000117068]
15,-47.4423,CCc1ccc(S(=O)(=O)c2cnc3ccccc3c2N2CCN(c3ccccc3OC)CC2)cc1 [SJ000117069]
16,-15.3715,COc1ccccc1N1CCN(c2c(S(=O)(=O)c3ccc(Cl)cc3)cnc3ccc(C)cc23)CC1 [SJ000117070]
17,-32.6681,COc1ccc(N2CCN(c3c(S(=O)(=O)c4ccccc4)cnc4ccc(OC)cc34)CC2)cc1 [SJ000117071]
18,-5.838,COc1ccc(N2CCN(c3c(S(=O)(=O)c4ccc(C)cc4)cnc4ccc(Cl)cc34)CC2)cc1 [SJ000117072]
19,-13.2577,COc1ccc(N2CCN(c3c(S(=O)(=O)c4ccc(C)c(C)c4)cnc4ccc(F)cc34)CC2)cc1 [SJ000117073]
20,-11.204,CCc1ccc(S(=O)(=O)c2cnc3ccccc3c2N2CCN(c3ccc(OC)cc3)CC2)cc1 [SJ000117074]
21,-3.122,COc1ccc(N2CCN(c3c(S(=O)(=O)c4ccc(Cl)cc4)cnc4ccc(C)cc34)CC2)cc1 [SJ000117075]
22,6.02,COc1ccc2ncc(S(=O)(=O)c3ccc(C)cc3)c(N3CCN(c4ccccc4F)CC3)c2c1 [SJ000117076]
23,5.159,CCOc1ccc2ncc(S(=O)(=O)c3ccc(C)cc3)c(N3CCN(c4ccccc4F)CC3)c2c1 [SJ000117077]

# Same assay, conditions: single point TR-FRET screening of quinoline compounds against MAGE-A11:PCF11
row,percent inhibition (TR-FRET),Compound
1,-446.911,CCOc1ccc2ncc(S(=O)(=O)c3ccc(Cl)cc3)c(N3CCN(c4ccccc4)CC3)c2c1 [SJ000117054]
